Test results published in US5177082A, “Huperzines and analogs” (priority 1990, dated 1993).
Where two headings read alike, the source gives them in different places.

Key:
[1] = tested on: In Vitro Rat Nerve/Diaphragm Muscle Contraction; experiment: In vitro phrenic nerve/diaphragm preparations of rats, enhancement of muscle contraction; details: for EC50: read-out: Enhancement of Muscle Contraction Amplitude, 50% Concentration; for Strength of Effect: relative to Huperzine A = 1.00
Method: 1. In Vitro Phrenic Nerve/Diaphragm Preparations of Rats.
After the fast decapitation of a rat, the thoracic cavity was opened and the right diaphragm with attached phrenic nerve was removed. After placing it in a Tyrode's solution (37° C. constant temperature), gassed with 95% oxygen+5% CO2, electrical stimulation (1-10 V, 0.5 ms, 1 c/10 s) of the phrenic nerve was used to produce muscle contraction. A transducer was used to record the contraction amplitude on a panel recorder. […].

[2] = tested on: Sciatic Nerve/Tibialis Muscle Preparation; experiment: Anesthetized rat sciatic nerve/tibialis muscle preparation; type: in vivo; details: for minimal effective dose: Rattus norvegicus, iv, read-out: Lowest Effective Dosage for Enhancing Muscle Contraction
Method: (§3) Anesthesized Rat and Rabbit Sciatic Nerve/Tibialis Muscle Preparation
(§4) Anesthesia was produced in rats by ip injections of 30 mg/kg of pentobarbital and in rabbits by iv injections of 1 g/kg of urethane. Electric stimulation of the periphery of the sciatic nerve (5-10 V, 0.5 ms, 1 c/10 s) caused tibialis contraction which was recorded on smoked paper.

[3] = tested on: Sciatic Nerve/Tibialis Muscle Preparation; experiment: Anesthetized rabbit sciatic nerve/tibialis muscle preparation; type: in vivo; details: rabbits; for minimal effective dose: Oryctolagus cuniculus, iv, read-out: Lowest Effective Dosage for Enhancing Muscle Contraction
Method: as §3, §4

memory functions of rats = experiment: Memory function of preconditioned rats after 48 hours; type: in vivo, rat; details: 0.15 mg/kg, after 48 hours
Method: To evaluate the impact on the memory function, preconditioned animals going through 5 shock-free runs were used as learned animals. After 48 hours the drug-free (control) animals required 14.4±8.9 shocks to become learned.

pseudocholinesterase = target: T1, pseudocholinesterase (Rattus norvegicus, UniProt Q9JKC1); experiment: biochemical
T1 construct: 0.1 ml of rat blood serum; from tissue; host or cells: rat blood serum
Method: (§1) Red blood cell membranes of rats were used as the source for the true cholinesterase with a substrate concentration of 0.3 mM of S-acetylthiocholine iodide. The source for pseudocholinesterase was 0.1 ml of rat blood serum and the substrate was 0.4 mM S-butyrylthiocholine iodide. The Ellman colorimetric method was used to measure the enzyme activity. The percentage of enzyme activity remaining was plotted against negative logarithm (pI) of the drug concentration and the pI50 (the negative logarithm of the gram molecule concentration of the drug required to inhibit the enzyme activity 50%) was derived.

Mice = details: mouse, in vivo
Rats = details: rat, in vivo
in vivo [4] = details: mouse, ip
in vivo [5] = details: rat, ip
[6] = tested on: learning functions of rats; experiment: Y maze conditioned reflex test, learning process of rats; details: 0.08 mg/kg, iv
Text: Each animal was required to go through 10 successive shock-free runs to be classified as learned.

myasthenia gravis = experiment: Double blind cross-over comparison of Huperzine A and neostigmine, 69 cases of myasthenia gravis; type: in vivo, human
Text: (§2) Patients affected with myasthenia gravis (MG) with typical clinical symptoms which improved after using neostigmine were the subjects for testing and verification. […] The injections were all given in the morning and on the morning prior to the injections anticholinesterase drugs were discontinued. Neither the patients nor the doctors knew which drug was being injected. Later, the symptoms, the duration of the improvements, if any, which were obtained by the drugs and the side effects were recorded.
(1) Comparison of the maintained times of the effects.

patients = experiment: Clinical side effects in patients with myasthenia gravis; type: in vivo, human
Method: as §2, with “verification. […] It was generally used for at least ten days and each dosage was 0.4-0.5 mg.” for “verification.”, “recorded. Based on these factors, the relative merits of the two drugs were established.” for “recorded.”

true cholinesterase = true cholinesterase (Rattus norvegicus, UniProt P37136); experiment: biochemical; set-up: Red blood cell membranes of rats; from tissue; host or cells: rat red blood cell membranes
Method: as §1

TA100 = experiment: Mutation test (Ames) TA100 + S9; details: 1500 μg/container
[7] = in vitro rat phrenic nerve/diaphragm, 37° C.
[8] = 0.4 mM S-butyrylthiocholine iodide, read-out: Inhibition of Cholinesterase (pI50), Blood serum (converted)
[9] = 0.3 mM S-acetylthiocholine iodide, read-out: Inhibition of Cholinesterase (pI50), Red Blood Cells (converted)

T1 sequence (Q9JKC1 24-597): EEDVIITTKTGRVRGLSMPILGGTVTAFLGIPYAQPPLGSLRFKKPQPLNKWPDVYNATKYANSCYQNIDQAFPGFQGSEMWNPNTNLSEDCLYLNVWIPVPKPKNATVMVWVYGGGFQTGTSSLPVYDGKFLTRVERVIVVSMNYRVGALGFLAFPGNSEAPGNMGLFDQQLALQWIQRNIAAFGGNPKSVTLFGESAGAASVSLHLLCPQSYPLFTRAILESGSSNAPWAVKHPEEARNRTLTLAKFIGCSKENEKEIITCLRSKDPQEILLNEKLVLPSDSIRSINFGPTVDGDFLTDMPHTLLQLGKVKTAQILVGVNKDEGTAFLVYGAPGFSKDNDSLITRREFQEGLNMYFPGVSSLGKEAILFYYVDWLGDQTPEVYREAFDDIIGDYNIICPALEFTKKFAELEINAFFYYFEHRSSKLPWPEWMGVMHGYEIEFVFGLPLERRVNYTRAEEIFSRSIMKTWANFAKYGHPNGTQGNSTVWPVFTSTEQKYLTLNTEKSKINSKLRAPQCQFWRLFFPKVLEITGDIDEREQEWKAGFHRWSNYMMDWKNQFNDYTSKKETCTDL
Chain of true cholinesterase (P37136-2 with tags, fused parts or gaps limits assumed): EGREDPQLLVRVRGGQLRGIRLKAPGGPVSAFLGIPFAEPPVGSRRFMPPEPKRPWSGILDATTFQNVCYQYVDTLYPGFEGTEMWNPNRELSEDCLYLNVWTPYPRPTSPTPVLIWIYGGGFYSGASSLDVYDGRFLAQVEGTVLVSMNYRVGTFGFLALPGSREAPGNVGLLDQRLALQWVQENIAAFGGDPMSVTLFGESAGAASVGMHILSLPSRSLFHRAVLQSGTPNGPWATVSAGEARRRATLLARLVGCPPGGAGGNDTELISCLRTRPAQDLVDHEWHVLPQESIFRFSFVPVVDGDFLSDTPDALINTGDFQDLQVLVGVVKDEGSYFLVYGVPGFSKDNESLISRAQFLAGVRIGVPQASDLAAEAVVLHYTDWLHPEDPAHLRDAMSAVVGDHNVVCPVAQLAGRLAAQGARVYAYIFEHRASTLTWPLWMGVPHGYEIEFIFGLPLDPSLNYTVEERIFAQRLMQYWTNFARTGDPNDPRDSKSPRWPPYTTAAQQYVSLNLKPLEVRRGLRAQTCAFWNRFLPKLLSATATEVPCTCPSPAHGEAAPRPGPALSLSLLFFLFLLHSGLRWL

## CNC(=O)Oc1ccc2c(c1)[C@]1(C)CCN(C)[C@@H]1N2C [Physostigmine, reference compound]
[1]; [7]
  EC50: 0.245 µM
[1]
  Strength of Effect: 1.79
[2]; rats
  minimal effective dose: 0.05 mg/kg
[2]; rats, physostigmine = 1.0
  Strength of Effect: 1.0
[3]
  minimal effective dose: 0.12 mg/kg
[3]; iv (Huperzine A 30 μg/kg)
  effect on electrically stimulated muscle contraction: enhanced the rabbit's tibialis muscle contraction amplitude but to a lesser degree than that observed for the rats
[3]; physostigmine = 1.0
  Strength of Effect: 1.0
Memory functions of rats
  shocks required to achieve the learned state (memory): 6.4±3.7 shocks
pseudocholinesterase
  IC50: 1.12 µM
Mice
  Toxic Strength: 2.25
Rats
  Toxic Strength: 2.08
In vivo [4]
  LD50: 0.8 mg/kg
In vivo [5]
  LD50: 2.4 mg/kg
[6]
  shocks accepted before achieving the learned state (learning): 7.9±3.5 shocks

## CN(C)C(=O)Oc1cccc([N+](C)(C)C)c1 [Neostigmine, reference compound]
[1]; Rattus norvegicus
  EC50: 0.272 µM
[1]
  Strength of Effect: 1.61
pseudocholinesterase; [8]
  IC50: 3.55 µM
Myasthenia gravis
  action time of neostigmine longer than Huperzine A, %: 8.69%
  action time of neostigmine longer than Huperzine A, cases: 6 cases
patients; control group
  Abdominal pains, %: 7.4%
  Abdominal pains, number of times: 26
  Blurred vision, %: 9.7%
  Blurred vision, number of times: 24
  Dizziness, %: 19.5%
  Dizziness, number of times: 68
  Drooling, %: 1.2%
  Drooling, number of times: 11
  Increase in the number of bowel movements, %: 2.0%
  Increase in the number of bowel movements, number of times: 7
  Muscle bundle quivering, %: 8.3%
  Muscle bundle quivering, number of times: 29
  Myosis, %: 3.4%
  Myosis, number of times: 12
  Nausea, %: 4.3%
  Nausea, number of times: 15
  Perspiring, %: 12.1%
  Perspiring, number of times: 43
  Tinnitus, %: 4.0%
  Tinnitus, number of times: 14
  Vomiting, %: 1.2%
  Vomiting, number of times: 6
patients; control patients, 69 cases
  cases with side effects: 34 cases
patients; control patients, 69 cases, X^2 =3.58, P>0.05
  cases with side effects, %: 49.27%
patients; perspiring X^2 =5.5, P<0.01, blurred vision X^2 =12.96, P<0.001
  perspiring and blurred vision vs Huperzine A: more noticeably than Hyperzine A caused perspiring and blurred vision
True cholinesterase; [9]
  IC50: 0.224 µM

## C/C=C1\[C@H]2C=C(C)C[C@]1(N(C)C)c1ccc(=O)n(C)c1C2 [N-trimethyl-huperzine A, (5R, 9R, 11E)-11-ethylidene-5,6,9,10-tetrahydro-1,7-dimethyl-5-(dimethylamino)-5,9-methanocycloocta[b]pyridin-2(1H)-one]
pseudocholinesterase
  Inhibition of Cholinesterase, Blood serum (concentration found ineffective): 1.1 × 10^-2 M ineffective
True cholinesterase; [9]
  IC50: 316 µM

## CC1=C[C@H]2Cc3[nH]c(=O)ccc3[C@]3(C1)NCCC[C@H]23 [Huperzine B, (4aR, 5R, 10bR)-1,2,3,4,4a,5,6,10b-octahydro-12-methyl-5,10b-propeno-1,7-phenanthrolin-8(7H)-one]
[1]; Rattus norvegicus
  EC50: 4.8 µM
[1]
  Strength of Effect: 0.09
pseudocholinesterase
  IC50: 200 µM
True cholinesterase
  IC50: 0.501 µM

## C/C=C1\[C@H]2C=C(C)C[C@]1(NC(C)=O)c1ccc(=O)[nH]c1C2 [N-acetyl huperzine A, (5R, 9R, 11E)-5-(acetylamino)-11-ethylidene-5,6,9,10-tetrahydro-7-methyl-5,9-methanocycloocta[b]pyridin-2(1H)-one]
pseudocholinesterase
  Inhibition of Cholinesterase, Blood serum (concentration found ineffective): 1.1 × 10^-2 M ineffective
True cholinesterase; [9]
  IC50: > 3160 µM

## COc1ccc2c3c1O[C@H]1C[C@@H](O)C=C[C@@]31CCN(C)C2 [Galanthamine, reference compound]
[1]; [7]
  EC50: 4.2 µM
[1]
  Strength of Effect: 0.10
[2]
  minimal effective dose: 0.5 mg/kg
[2]; rat, in vivo
  Strength of Effect: 1.0
[3]
  minimal effective dose: 0.5 mg/kg
[3]; galanthamine = 1.0
  Strength of Effect: 1.0
pseudocholinesterase
  Inhibition of Cholinesterase (pI50), Blood serum: 4.9
Mice
  Toxic Strength: 0.13
Rats
  Toxic Strength: 1.22
In vivo [4]
  LD50: 13.4 mg/kg
In vivo [5]
  LD50: 22.9 mg/kg

## O=P1(N(CCCl)CCCl)NCCCO1 (stereo not shown) [Cyclophosphamide]
TA100
  reverse mutation colonies, TA100 + S9: 566 ± 10

## CCC1[C@H]2Cc3[nH]c(=O)ccc3[C@@]1(N)CC(C)C2 (stereo partly drawn) [tetrahydro-huperzine A, (5R, 9R)-5-amino-11-ethyl-5,6,7,8,9,10-hexahydro-7-methyl-5,9-methanocycloocta[b]pyridin-2(1H)-one]
pseudocholinesterase; [8]
  IC50: 50.1 µM
True cholinesterase; [9]
  IC50: 2.51 µM

## C/C=C1\[C@H]2C=C(C)C[C@]1(N(C)C)c1ccc(=O)[nH]c1C2 [N-dimethyl huperzine A, (5R, 9R, 11E)-11-ethylidene-5,6,9,10-tetrahydro-7-methyl-5-(dimethylamino)-5,9-methanocycloocta[b]pyridin-2(1H)-one]
pseudocholinesterase; 0.4 mM S-butyrylthiocholine iodide
  Inhibition of Cholinesterase, Blood serum (concentration found ineffective): 1.2 × 10^-2 M ineffective
True cholinesterase
  IC50: 158 µM

## Tubocurarine [reference compound]
[2]; tubocurarine 0.3 mg/kg iv, species not separated (rats/rabbits)
  block of electrically induced muscle contraction: completely blocked the electrically induced muscle contraction

## CC1=C[C@H]2Cc3[nH]c(=O)ccc3[C@@]3(C1)[C@@H]2CCCN3C [N-methyl huperzine B, (4aR, 5R, 10bR)-1,2,3,4,4a,5,6,10b-octahydro-1,12-dimethyl-5,10b-propeno-1,7-phenanthrolin-8(7H)-one]
pseudocholinesterase; [8]
  IC50: 316 µM

## CCC1[C@H]2C=C(C)C[C@]1(N)c1ccc(=O)[nH]c1C2 (stereo partly drawn) [11,12-dihydro-huperzine A, (5R, 9R)-5-amino-11-ethyl-5,6,9,10-tetrahydro-7-methyl-5,9-methanocycloocta[b]pyridin-2(1H)-one]
pseudocholinesterase; [8]
  IC50: 12.6 µM
True cholinesterase
  IC50: 0.631 µM
